Test: Inhibition of HCV BK NS5B polymerase
Set-up: species or system Hepacivirus hominis

| IC50 | Structure (SMILES) |
| --- | --- |
| 9.3 µM | CCc1ccc(/C=C2\SC(N[C@H](C(=O)NS(=O)(=O)c3ccc(C)cc3)c3ccc(F)cc3)=NC2=O)o1 (stereo in doubt) |
| 14 µM | CCc1ccc(/C=C2\SC(N[C@H](C(=O)NS(=O)(=O)c3cccc(C(=O)OC)c3)c3ccc(F)cc3)=NC2=O)o1 (stereo in doubt) |
| 12 µM | CCc1ccc(/C=C2\SC(N[C@H](C(=O)NS(=O)(=O)c3cccc(C(=O)O)c3)c3ccc(F)cc3)=NC2=O)o1 (stereo in doubt) |
| 6.6 µM | CCc1ccc(/C=C2\SC(N[C@H](C(=O)NS(=O)(=O)c3ccc([N+](=O)[O-])cc3)c3ccc(Cl)cc3Cl)=NC2=O)o1 (stereo in doubt) |
| 15 µM | CCc1ccc(/C=C2\SC(N[C@H](C(=O)NS(=O)(=O)c3cccc([N+](=O)[O-])c3)c3ccc(F)cc3)=NC2=O)o1 (stereo in doubt) |
| 16 µM | CCc1ccc(/C=C2\SC(N[C@H](CS(=O)(=O)NC(=O)c3ccccc3)c3ccccc3)=NC2=O)o1 (stereo in doubt) |
